Measured values as given in patent US9128097B2, “Method and kit for assessing viable cells” (ChemoMetec A/S, priority 2008, dated 2015).

Assays:
HEK293 cells = assay: NAM/PI staining of outgrown HEK293 cells, fluorescence microscopy; format: cell-based, Human; details: 10 μg/mL NAM
Procedure: Materials and Methods. HEK293 cells were grown at 37° C. in a humidified air atmosphere with 5% CO2 in DMEM (Invitrogen, #31966) supplemented with 10% heat-inactivated fetal bovine serum (Invitrogen, #10108-165). Cells were harvested with 0.5 mL of trypsin (Invitrogen, #25300) and neutralized with 5 mL medium (DMEM+10% FCS) two days after they had reached full confluency. These outgrown HEK293 cells (cell density 1.6×10^6, 78% viable determined using the NC-100 NucleoCounter system following the manufacturer's (ChemoMetec) protocol) were stained with 10 μg/mL NAM (Sigma, #01665). Another cell sample were treated with 0.25% Triton X-100 (Sigma, #T9284) and hereafter added 10 μg/mL NAM. After staining, each cell sample was loaded into a NucleoCassette, containing the DNA stain propidium iodide (PI). The cells were investigated using an Olympus IX50 fluorescence microscope, and images were captured using a Lumenera CCD camera and in-house developed software. PI and NAM fluorescence were detected using, respectively, U-MWG2 (green long pass: 510-550 nm) and U-MNUA2 (UV band pass, 330-385 nm) filter cubes (Olympus).

Jurkat (JM) cells = assay: Staining of proliferating Jurkat cells with labelling agent and propidium iodide, fluorescence microscopy; format: cell-based; details: 10 μL agent (100 μg pr. mL DMSO) added to 90 μL cells, only exception PI positive cells
Procedure: (§1) Materials and Methods. Jurkat (JM) cells were grown at 37° C. in a humidified air atmosphere with 5% CO2 in RPMI (Invitrogen, #61870) supplemented with 10% heat-inactivated fetal bovine serum (Invitrogen, #10108-165). 90 μL proliferating Jurkat cells (cell density 1.2×10^6, 99% viable determined using the NC-100 NucleoCounter system following the manufacturer's (ChemoMetec A/S) protocol) were added 10 μL NAM (N-(9-acridinyl)maleimide, Sigma, #01665, CAS no. 49759-20-8) dissolved in DMSO (100 μg NAM pr. mL DMSO) and mixed by pipetting. Cells were loaded into a NucleoCassette, containing the DNA stain propidium iodide (PI). The cells were investigated using an Olympus IX50 fluorescence microscope, and images were captured using a Lumenera CCD camera and in-house developed software. PI and NAM fluorescence were detected using, respectively, U-MWG2 (green long pass: 510-550 nm) and U-MNUA2 (UV band pass, 330-385 nm) filter cubes (Olympus).
as §1, with “1.0×10^6,” for “1.2×10^6,”, “(ChemoMetec)” for “(ChemoMetec A/S)”, “CPM (7-diethylamino-3-[4′-maleimidylphenyl]-4-methylcoumarin, Chemodex Ltd.,” for “NAM (N-(9-acridinyl)maleimide, Sigma, #01665,”, “76877-33-3)” for “49759-20-8)”, “CPM” for “NAM”
as §1, with “1.1×10^6, 98%” for “1.2×10^6, 99%”, “(ChemoMetec)” for “(ChemoMetec A/S)”, “PM (N-(1-Pyrenyl)maleimide, Sigma P7908” for “NAM (N-(9-acridinyl)maleimide, Sigma, #01665,”, “42189-56-0)” for “49759-20-8)”, “PM” for “NAM”, “Cells were loaded into a NucleoCassette, containing the DNA stain propidium iodide (PI).” left out
Materials and Methods. […] 90 μL proliferating Jurkat cells (cell density 1.1×10^6, 98% viable determined using the NC-100 NucleoCounter system following the manufacturer's (ChemoMetec) protocol) were added 10 μL CPI (7-diethylamino-3-((4′-(iodoacetyl)amino)phenyl)-4-methylcoumarin, Sigma 78264 CAS no. 76877-34-4) dissolved in DMSO (100 μg CPI pr. mL DMSO) and mixed by pipetting. […] The cells were investigated using an Olympus IX50 fluorescence microscope, and images were captured using a Lumenera CCD camera and in-house developed software. PI and CPI fluorescence were detected using, respectively, U-MWG2 (green long pass: 510-550 nm) and U-MNUA2 (UV band pass, 330-385 nm) filter cubes (Olympus). […]

## O=C1C=CC(=O)N1c1c2ccccc2nc2ccccc12 [NAM, N-(9-acridinyl)maleimide]
HEK293 cells; HEK293 cells treated with 0.25% Triton X-100
  staining of Triton X-100 treated cells: NAM negative
HEK293 cells; outgrown HEK293 cells, 78% viable
  staining of cells versus PI: NAM and PI were found to complementary stain the outgrown HEK293 cells
Jurkat (JM) cells
  staining of cells (UV filter) versus PI positive cells: nearly all cells in the proliferating Jurkat cell culture were stained by NAM
